# Target: at least one kinase selected from Aurora A, Aurora B, EGF-R, ERBB2, PDGFR, IGF1-R, VEGF-R2, VEGF-R3, EPHB4, Tie2, and SRC
# Assay: 33PanQinase Activity Assay (protein kinase assay)
# Type: biochemical
# Conditions: on at least one kinase of the listed panel, or on at least two kinases from at least two different molecular mechanisms of tumor progression; recombinant human kinases, 1 µM ATP
# Description: The effect of the benzazole derivatives was tested on recombinant, human protein kinases. All protein kinases were expressed in Sf9 insect cells as human recombinant GST-fusion proteins or as His-tagged proteins by means of the baculovirus expression system. Protein kinases were purified by affinity chromatography using either GSH-agarose or Ni-NTH-agarose. The purity and identity of each was checked by SDS-PAGE/silver staining and by western blot analysis with specific antibodies. A proprietary protein kinase assay (^33PanQinase® Activity Assay) was used for measuring the kinase activity. All kinase assays were performed in 96-well FlashPlates™ in a 50 µl reaction volume. The assay for all enzymes contained 60 mM HEPES-NaOH, pH 7.5, 3 mM MgCl2, 3 mM MnCl2, 3 µM Na-orthovanadate, 1.2 mM DTT, 50 µg/ml PEG20000 and 1 µM [γ-^33P]-ATP (approx. 5x10^5 cpm per well). The reaction cocktails were incubated at 30°C for 80 minutes. The reaction was stopped with 50 µl of 2% (v/v) H3PO4, plates were aspirated and washed two times with 200 µl of 0.9% (w/v) NaCl. Incorporation of ^33Pi was determined with a microplate scintillation counter. All assays were performed with a BeckmanCoulter/ Sagian robotic system.
row,Compound,IC50 [µM]
1,"COc1cc2ncnc(Nc3ccc4nc(NC(=O)c5ccccc5)oc4c3)c2cc1OC [Example 1, N-[6-(6,7-Dimethoxyquinazolin-4-ylamino)benzoxazol-2-yl]benzamide]",< 0.5
2,"COc1cc2ncnc(Nc3ccc4nc(NC(=O)c5ccccc5)sc4c3)c2cc1OC [Example 2, N-[6-(6,7-Dimethoxyquinazolin-4-ylamino)benzothiazol-2-yl]benzamide]",< 0.5
3,"COc1cc2c(Nc3ccc4nc(NC(=O)c5ccccc5)sc4c3)ncnc2cc1OCCCN1CCN(C)CC1 [Example 5, N-(6-{6-Methoxy-7-[3-(4-methylpiperazin-1-yl)propoxy]quinazolin-4-yl-amino}benzothiazol-2-yl)benzamide]",< 0.5
4,"Cc1cc(Nc2ccnc(Nc3ccc4nc(NC(=O)c5ccccc5)sc4c3)n2)n[nH]1 [Example 9, N-{6-[4-(5-Methylpyrazol-3-ylamino)pyrimidin-2-ylamino]benzothiazol-2-yl}benzamide]",< 0.5
5,"O=C(Nc1nc2cc(Nc3ncnc4nc[nH]c34)ccc2s1)c1ccccc1 [Example 11, N-[5-(Purin-6-ylamino)benzothiazol-2-yl]benzamide]",< 0.5

# Reference: patent publication EP1674466A1, “2,5- and 2,6-disubstituted benzazole analogues useful as protein kinase inhibitors” (4SC AG, priority 2004, dated 2006)
